# Laboratory results: PMC2361514 (British Journal of Cancer, 2005)
# Read-outs that look alike come from different tables or passages of the source. Marks after values point to notes of the source that are not given here.
# What was measured:
# cancer patients = settings: cited from earlier work; for MTD: ref Adjei et al, 2003b
# [1] = Plasma pharmacokinetics of gemcitabine and dFdU (HPLC) with or without tipifarnib; settings: for AUC(0-t) / Cmax: 750 mg
# Description: (§1) In cycle 2, tipifarnib pharmacokinetics was then determined on day 2. For gemcitabine, 2 ml blood samples were taken at 0, 15, 30, 35, 45, 60, 90 min and at 2, 2.5, 24, 32 and 48 h after the start of the 30 min infusion during cycle 1 and at 0, 15, 30, 35, 45, 60, 90 min during cycle 2. Both gemcitabine and its metabolite 2′, 2′ -difluoro-2′-deoxy-uridine (dFdU) were measured in plasma. Of each blood sample, 1 ml was added to 10 μl of tetrahydrouridine (10 mg ml^−1), after which it was centrifuged for 5 min at 4°C and 1500 g. Subsequently, the plasma layer was stored at −20°C until analysis. Additionally, 15 ml blood samples were taken at 0, 1.5, 4 and 24 h after the start of the gemcitabine infusion for the determination of the triphosphate metabolite of gemcitabine (dFdCTP) in WBC ([Sparidans et al, 2002]). Isolation of WBC was performed using a Ficoll density gradient (Pharmacia, Sweden) as described previously ([Heinemann et al, 1998]). All gemcitabine levels were measured using a validated high-performance liquid chromatography (HPLC) method, analogous to the method of [Freeman et al (1995)]. […] Blood samples were immediately centrifuged for 5 min at 4°C and 1500 g. Unbound platinum was obtained by ultrafiltration using the MPS-1 system equipped with 3 kDa YMT membranes (Amicon Division, Danvers, MA, USA). The resulting plasma ultrafiltrate and total plasma were immediately stored at −20°C until analysis by atomic absorption spectrometry (AAS) ([Van Warmerdam et al, 1995]). […] For tipifarnib, 5 ml blood samples were drawn at 0, 1, 2, 3, 5, 8 and 12 h after the morning dose. Immediately after collection, the blood samples were centrifuged for 5 min at 4°C at 1500 g. Separated plasma was stored at −20°C for subsequent drug analysis by a validated HPLC method with UV detection ([Zujewski et al, 2000]).
# (§2) The following pharmacokinetic parameters were determined using noncompartmental analysis with WinNonLin software (version 4.1, Pharsight Corporation, Mountain View, CA, USA): the maximum plasma concentration (Cmax), time to maximum plasma concentration (tmax), the elimination half-life (t1/2), the area under the plasma concentration–time curve from 0 to 48 h (AUC0–48) of gemcitabine and dFdU and the AUC0–23 for total and unbound (free) platinum. […] In addition, the AUC0–24 of dFdCTP and the AUA0–23 (area under the adduct curve) ([Schellens et al, 1996]) of Pt-DNA adducts were calculated in WBC. For tipifarnib, Cmax, tmax and AUC0-12 were determined.
# (§3) The primary pharmacokinetic parameters of interest for the statistical analyses were Cmax and AUC. Only data from patients who completed the pharmacokinetic blood sampling during the first and second cycles and had no dose reduction were included in the analyses. […] A significance level of 0.05 was used for all analyses. The statistical analyses were performed using the SAS statistical software program (version 6.12; SAS Institute, Inc., Cary, NC, USA).
# [2] = dFdCTP in white blood cells with or without tipifarnib; type: in vivo, human; settings: mononuclear blood cell, adjusted to 750 mg m^−2 gemcitabine
# [3] = tested on: patients with advanced solid tumours; assay: Phase I trial: dose-limiting toxicities in cycle 1 and maximum tolerated dose; type: in vivo, human
# Description: Tipifarnib was supplied by Johnson & Johnson Pharmaceutical Research and Development as 100 mg tablets. […] Tipifarnib was administered orally twice daily, with intervals of 12 h. Tipifarnib was given on days 1–7 of each 21-day cycle. […] To minimise nephrotoxicity, a pre-and posthydration schedule was implemented on day 1. […] At least three patients were treated at each dose level. If DLT occurred in a patient during cycle 1, three additional patients were enrolled in that cohort. MTD was defined at which 2 or more out of 6 patients (2⩾6) experienced DLT. […] These toxicities were only considered DLT if they occurred during the first cycle of treatment. In the case of grade 3–4 haematological toxicities, the dose of gemcitabine was adjusted in the next cycle based on nadir blood cell counts. Dose adjustments were relative to the starting dose of gemcitabine received in the previous cycle of therapy. If the nadir granulocyte count was >500 μl^−1 and the nadir platelet count >50 000 μl^−1, 100% of the planned gemcitabine dose was administered. […] The administration of tipifarnib was discontinued when haematological DLT occurred. After recovery to at least grade 1, tipifarnib was reinstituted at the same dose level in conjunction with a dose modification of gemcitabine. […]
# plasma proteins = settings: cited from earlier work
# [4] = tested on: patients with advanced solid tumours; assay: Phase I trial: treatment emergent grade 3 or 4 haematological and nonhaematological toxicities (NCI-CTC v2.0), all cycles; settings: human, in vivo
# Description: Tipifarnib was supplied by Johnson & Johnson Pharmaceutical Research and Development as 100 mg tablets. […] Tipifarnib was administered orally twice daily, with intervals of 12 h. Tipifarnib was given on days 1–7 of each 21-day cycle. […] To minimise nephrotoxicity, a pre-and posthydration schedule was implemented on day 1. […] At least three patients were treated at each dose level. If DLT occurred in a patient during cycle 1, three additional patients were enrolled in that cohort. MTD was defined at which 2 or more out of 6 patients (2⩾6) experienced DLT. […] These toxicities were only considered DLT if they occurred during the first cycle of treatment. In the case of grade 3–4 haematological toxicities, the dose of gemcitabine was adjusted in the next cycle based on nadir blood cell counts. Dose adjustments were relative to the starting dose of gemcitabine received in the previous cycle of therapy. If the nadir granulocyte count was >500 μl^−1 and the nadir platelet count >50 000 μl^−1, 100% of the planned gemcitabine dose was administered. […] The administration of tipifarnib was discontinued when haematological DLT occurred. After recovery to at least grade 1, tipifarnib was reinstituted at the same dose level in conjunction with a dose modification of gemcitabine. If a patient continued to experience haematological DLT after one dose modification of gemcitabine, the dose of tipifarnib was decreased with 100 mg b.i.d. If at any time the dose of tipifarnib was to be reduced to <100 mg b.i.d. or if retreatment needed to be delayed >2 weeks after the scheduled restarting of a cycle, the patient went off-study. […] If grade 4 nonhaematological toxicities occurred, patients went off-study. No dose adjustments were made for transaminase elevation unless associated with clinical signs or symptoms. […] If at any time the dose of tipifarnib was to be reduced to <100 mg b.i.d. or if retreatment needed to be delayed >2 weeks after the scheduled restarting of a cycle, the patient went off-study.
# Complete patient history, physical examination, haematology, chemistry, urinalysis and electrocardiogram were performed at baseline and before each cycle of treatment. Physical examination, haematology and chemistry were also evaluated on days 8 and 15 of each cycle. Audiometry was performed at baseline and was repeated if clinically indicated. Indicator lesions were measured before start of treatment and every two cycles, as a basis for the assessment of activity of the treatment. All toxicities observed were graded according to the Common Toxicity Criteria ([NCI-CTC, Version 2.0, 1998]).
# [5] = Plasma pharmacokinetics of tipifarnib (HPLC-UV) as monotherapy or with gemcitabine/cisplatin; type: in vivo, human; settings: single 200 mg oral dose
# Description: as §1, §2, §3
# [6] = cited from earlier work
# [7] = combination with tipifarnib given for 14 days
compound,measurement,setting,value
N.N.[Cl][Pt][Cl] [cisplatin],MTD,cancer patients; [7],75 mg m^−2
Nc1ccn([C@@H]2O[C@H](COP(=O)(O)OP(=O)(O)OP(=O)(O)O)[C@@H](O)C2(F)F)c(=O)n1 [dFdCTP],Pharmacokinetic (drug–drug) interaction,"[1]; cycle 1 (with tipifarnib) vs cycle 2 (without tipifarnib), Cmax and AUC, ANOVA",no drug–drug interaction
same,"AUC0–24, mean (s.d.)",[2]; Gem/cis without tipifarnib,18.3 (40.9) ^i h nanomol mg protein^−1
same,"AUC0–24, mean (s.d.)",[2]; Gem/cis+tipifarnib 100–300 mg,14.7 (22.9) ^j h nanomol mg protein^−1
"O=c1ccn([C@@H]2O[C@H](CO)[C@@H](O)C2(F)F)c(=O)[nH]1 [dFdU, 2′, 2′ -difluoro-2′-deoxy-uridine]",AUC(0-t),"[1]; human, in vivo",237000 ng·h/mL
same,Cmax,"[1]; human, in vivo",25600 ng/mL
same,Pharmacokinetic (drug–drug) interaction,[1]; in vivo,significant difference
Nc1ccn([C@@H]2O[C@H](CO)[C@@H](O)C2(F)F)c(=O)n1 [gemcitabine],Maximum tolerated dose (MTD),"[3]; i.v., in the combination of tipifarnib, gemcitabine (days 1 and 8) and cisplatin (day 1), 21-day cycle (dose level 3)",1000 mg m^−2
same,Binding to plasma proteins,"plasma proteins; ref Shipley et al, 1992",negligible
same,Patients with a dose reduction owing to haematological toxicities,[4],16%
same,Patients with a dose reduction owing to nonhaematological toxicities,[4],13%
same,AUC(0-t),"[1]; human, in vivo",6710 ng·h/mL
same,Cmax,"[1]; human, in vivo",12500 ng/mL
same,Median tmax,"[1]; human, in vivo, iv",0.50 h
same,Pharmacokinetic (drug–drug) interaction,[1]; in vivo,no drug–drug interaction
same,MTD,cancer patients; [7],1000 mg m^−2
Cn1cncc1[C@@](N)(c1ccc(Cl)cc1)c1ccc2c(c1)c(-c1cccc(Cl)c1)cc(=O)n2C [tipifarnib],AUC(0-t),"[5]; human, tipifarnib as monotherapy (cycle 2 day 2), n=20, read-out: AUC0-12, mean (s.d.)",2630 ng·h/mL
same,Cmax,"[5]; human, tipifarnib as monotherapy (cycle 2 day 2), n=20, read-out: Cmax, mean (s.d.)",499 ng/mL
same,Median tmax,"[5]; tipifarnib as monotherapy (cycle 2 day 2), n=20",3.0 h
same,"AUC0-12, mean (s.d.)","[5]; with gemcitabine 750–1000 mg m^−2 and cisplatin 75–100 mg m^−2 (cycle 1 day 1), n=22",2971 (2089) ^c h ng ml^−1
same,Median tmax,"[5]; with gemcitabine 750–1000 mg m^−2 and cisplatin 75–100 mg m^−2 (cycle 1 day 1), n=23",2.1 h
same,Preclinical interaction of the combination,"[6]; tipifarnib combined with cisplatin, ref Skrzat et al, 1999",additive
same,Preclinical interaction of the combination,"[6]; tipifarnib combined with gemcitabine, ref Janssen Research Foundation, 2003",synergy
same,Maximum tolerated dose (MTD),"[3]; oral, days 1–7 of each 21-day cycle, in combination with gemcitabine and cisplatin (dose level 3)",200 mg b.i.d.
same,Bound to plasma proteins,"plasma proteins; ref Janssen Research Foundation, 2003",99%
same,Patients with a dose reduction owing to haematological toxicities,[4],10%
same,Patients with a dose reduction owing to nonhaematological toxicities,[4],3%
same,Recommended dose,"cancer patients; continuous tipifarnib with gemcitabine 1000 mg m^−2 on days 1, 8 and 15 every 4 weeks, ref Patnaik et al, 2003",200 mg b.i.d.
same,Dose up to which the regimen was safe,"cancer patients; monotherapy, 7 consecutive days, cancer patients, ref Zujewski et al, 2000",at least 300 mg b.i.d.
same,MTD,cancer patients; tipifarnib for 14 days with gemcitabine days 1 and 8 and cisplatin day 1,300 mg b.i.d.
